In ChEMBL document CHEMBL5131406, “New bis- and tetrakis-1,2,3-triazole derivatives: Synthesis, DNA cleavage, molecular docking, antimicrobial, antioxidant activity and acid dissociation constants” (2022):
Converted amounts (≈) assume the structure as drawn. The source made the active and inactive calls. The rule behind the calls is not given here.

What was measured:
[1] = Antioxidant activity assessed as ferrous ion chelating activity at 200 ug/ml; format: functional; settings: dose 200.0 µg/ml
Candida tropicalis = test: Antifungal activity against Candida tropicalis; format: functional
Bacillus cereus = test: Antibacterial activity against Bacillus cereus; format: functional
Legionella pneumophila = test: Antibacterial activity against Legionella pneumophila subsp. pneumophila; format: functional
Pseudomonas aeruginosa = test: Antibacterial activity against Pseudomonas aeruginosa; format: functional
Enterococcus hirae = test: Antibacterial activity against Enterococcus hirae; format: functional
Escherichia coli = test: Antibacterial activity against Escherichia coli; format: functional
Staphylococcus aureus = test: Antibacterial activity against Staphylococcus aureus; format: functional
[2] = Antioxidant activity assessed as DPPH radical scavenging activity at 10 to 200 ug/ml; format: functional; settings: dose 10-200 µg/ml
DNA = test: Induction of Escherichia coli supercoiled pBR322 DNA cleavage assessed as increase in formation of linear form of DNA at 250 ug/ml by agarose gel electrophoresis; format: nucleic-acid assay; settings: dose 250.0 µg/ml
Candida albicans = test: Antifungal activity against Candida albicans; format: functional
[3] = Antioxidant activity assessed as ferrous ion chelating activity at 10 ug/ml; format: functional; settings: dose 10.0 µg/ml
[4] = Antioxidant activity assessed as DPPH radical scavenging activity at 200 ug/ml relative to control; format: functional; settings: dose 200.0 µg/ml

SMILES	Activity [1] [%]	MIC (Candida tropicalis) [µg/mL]	MIC (Bacillus cereus) [µg/mL]	MIC (Legionella pneumophila) [µg/mL]	MIC (Pseudomonas aeruginosa) [µg/mL]	MIC (Enterococcus hirae) [µg/mL]	MIC (Escherichia coli) [µg/mL]	MIC (Staphylococcus aureus) [µg/mL]	Activity [2]	Activity (DNA)	MIC (Candida albicans) [µg/mL]	Activity [3] [%]	Activity [4] [%]
O=C(Cn1cc(CC2CCCCC2)nn1)Nc1ccc(NC(=O)Cn2cc(CC3CCCCC3)nn2)cc1	33.8	32 (≈ 61.7 µM)	64 (≈ 123 µM)	16 (≈ 30.8 µM)	64 (≈ 123 µM)	8 (≈ 15.4 µM)	4 (≈ 7.71 µM)	64 (≈ 123 µM)	Active	Active	16 (≈ 30.8 µM)		
O=C(Cn1cc(C2CC2)nn1)Nc1ccc(NC(=O)Cn2cc(C3CC3)nn2)cc1	76.5	64 (≈ 157 µM)	64 (≈ 157 µM)	128 (≈ 315 µM)	128 (≈ 315 µM)	64 (≈ 157 µM)	64 (≈ 157 µM)	128 (≈ 315 µM)	Active	Active	128 (≈ 315 µM)		
[N-]=[N+]=NCCc1cn(CC(=O)Nc2ccc(NC(=O)Cn3cc(CCN=[N+]=[N-])nn3)cc2)nn1	52.8	16 (≈ 34.4 µM)	64 (≈ 138 µM)	32 (≈ 68.9 µM)	64 (≈ 138 µM)	32 (≈ 68.9 µM)	32 (≈ 68.9 µM)	64 (≈ 138 µM)	Active	Active	8 (≈ 17.2 µM)		
CC1(C)S[C@@H]2[C@H](NC(=O)[C@H](N)c3ccccc3)C(=O)N2[C@H]1C(=O)O [AMPICILLIN]			1 (≈ 2.86 µM)	0.5 (≈ 1.43 µM)	0.5 (≈ 1.43 µM)	0.5 (≈ 1.43 µM)	0.5 (≈ 1.43 µM)	1 (≈ 2.86 µM)					
CCOC(=O)c1cn(CC(=O)Nc2ccc(NC(=O)Cn3cc(C(=O)OCC)nn3)cc2)nn1	46.5	32 (≈ 68 µM)	64 (≈ 136 µM)	64 (≈ 136 µM)	64 (≈ 136 µM)	64 (≈ 136 µM)	128 (≈ 272 µM)	32 (≈ 68 µM)	Active	Active	64 (≈ 136 µM)		
O=C(Cn1cc(CCn2cc(C3CC3)nn2)nn1)Nc1ccc(NC(=O)Cn2cc(CCn3cc(C4CC4)nn3)nn2)cc1	42.8	64 (≈ 107 µM)	64 (≈ 107 µM)	32 (≈ 53.6 µM)	64 (≈ 107 µM)	64 (≈ 107 µM)	128 (≈ 215 µM)	64 (≈ 107 µM)	Active	Active	128 (≈ 215 µM)		
O=C(Cn1cc(C2CCCC2)nn1)Nc1ccc(NC(=O)Cn2cc(C3CCCC3)nn2)cc1	67.1	32 (≈ 69.2 µM)	64 (≈ 138 µM)	32 (≈ 69.2 µM)	64 (≈ 138 µM)	32 (≈ 69.2 µM)	128 (≈ 277 µM)	64 (≈ 138 µM)	Active	Active	64 (≈ 138 µM)	20.6	
O=C(Cn1cc(CCn2cc(C3CCCC3)nn2)nn1)Nc1ccc(NC(=O)Cn2cc(CCn3cc(C4CCCC4)nn3)nn2)cc1	43.9	4 (≈ 6.13 µM)	64 (≈ 98 µM)	128 (≈ 196 µM)	64 (≈ 98 µM)	4 (≈ 6.13 µM)	128 (≈ 196 µM)	16 (≈ 24.5 µM)	Active	Active	32 (≈ 49 µM)		
CC(C)CCc1cn(CC(=O)Nc2ccc(NC(=O)Cn3cc(CCC(C)C)nn3)cc2)nn1	70.8	32 (≈ 68.6 µM)	64 (≈ 137 µM)	32 (≈ 68.6 µM)	64 (≈ 137 µM)	32 (≈ 68.6 µM)	128 (≈ 274 µM)	64 (≈ 137 µM)	Active	Active	64 (≈ 137 µM)	22	
O=C(Cn1cc(CCn2cc(-c3ccccc3)nn2)nn1)Nc1ccc(NC(=O)Cn2cc(CCn3cc(-c4ccccc4)nn3)nn2)cc1	27.1	64 (≈ 95.7 µM)	128 (≈ 191 µM)	32 (≈ 47.9 µM)	64 (≈ 95.7 µM)	16 (≈ 23.9 µM)	128 (≈ 191 µM)	64 (≈ 95.7 µM)	Active	Active	64 (≈ 95.7 µM)		
O=C(Cn1cc(CCn2cc(CC3CCCCC3)nn2)nn1)Nc1ccc(NC(=O)Cn2cc(CCn3cc(CC4CCCCC4)nn3)nn2)cc1	48.9	4 (≈ 5.64 µM)	64 (≈ 90.3 µM)	32 (≈ 45.1 µM)	64 (≈ 90.3 µM)	16 (≈ 22.6 µM)	128 (≈ 181 µM)	64 (≈ 90.3 µM)	Active	Active	8 (≈ 11.3 µM)		
O=C(Cn1cc(-c2ccccc2)nn1)Nc1ccc(NC(=O)Cn2cc(-c3ccccc3)nn2)cc1	40.1	32 (≈ 66.9 µM)	64 (≈ 134 µM)	16 (≈ 33.4 µM)	64 (≈ 134 µM)	128 (≈ 267 µM)	64 (≈ 134 µM)	64 (≈ 134 µM)	Active	Active	64 (≈ 134 µM)		
CCOC(=O)c1cn(CCc2cn(CC(=O)Nc3ccc(NC(=O)Cn4cc(CCn5cc(C(=O)OCC)nn5)nn4)cc3)nn2)nn1	33.5	64 (≈ 96.9 µM)	32 (≈ 48.4 µM)	32 (≈ 48.4 µM)	64 (≈ 96.9 µM)	64 (≈ 96.9 µM)	128 (≈ 194 µM)	32 (≈ 48.4 µM)	Active	Active	128 (≈ 194 µM)		
OC(Cn1cncn1)(Cn1cncn1)c1ccc(F)cc1F [FLUCONAZOLE]		0.5 (≈ 1.63 µM)									0.5 (≈ 1.63 µM)		
O=C(Cn1cc(CCn2cc(CCc3ccccc3)nn2)nn1)Nc1ccc(NC(=O)Cn2cc(CCn3cc(CCc4ccccc4)nn3)nn2)cc1	17.3	16 (≈ 22.1 µM)	128 (≈ 177 µM)	64 (≈ 88.3 µM)	64 (≈ 88.3 µM)	64 (≈ 88.3 µM)	128 (≈ 177 µM)	64 (≈ 88.3 µM)	Active	Active	64 (≈ 88.3 µM)		
O=C(Cn1cc(CCn2cc(CCBr)nn2)nn1)Nc1ccc(NC(=O)Cn2cc(CCn3cc(CCBr)nn3)nn2)cc1	45.6	32 (≈ 43.8 µM)	64 (≈ 87.6 µM)	8 (≈ 11 µM)	64 (≈ 87.6 µM)	32 (≈ 43.8 µM)	128 (≈ 175 µM)	64 (≈ 87.6 µM)	Active	Active	8 (≈ 11 µM)		
O=C(Cn1cc(CCBr)nn1)Nc1ccc(NC(=O)Cn2cc(CCBr)nn2)cc1	30.4	32 (≈ 59.2 µM)	64 (≈ 118 µM)	32 (≈ 59.2 µM)	64 (≈ 118 µM)	32 (≈ 59.2 µM)	128 (≈ 237 µM)	64 (≈ 118 µM)		Active	64 (≈ 118 µM)		30.5
CC(C)CCc1cn(CCc2cn(CC(=O)Nc3ccc(NC(=O)Cn4cc(CCn5cc(CCC(C)C)nn5)nn4)cc3)nn2)nn1	44.9	32 (≈ 48.7 µM)	128 (≈ 195 µM)	16 (≈ 24.4 µM)	32 (≈ 48.7 µM)	16 (≈ 24.4 µM)	128 (≈ 195 µM)	32 (≈ 48.7 µM)		Active	64 (≈ 97.4 µM)		21.9
O=C(Cn1cc(CCc2ccccc2)nn1)Nc1ccc(NC(=O)Cn2cc(CCc3ccccc3)nn2)cc1	41.4	64 (≈ 120 µM)	32 (≈ 59.9 µM)	64 (≈ 120 µM)	16 (≈ 29.9 µM)	64 (≈ 120 µM)	128 (≈ 239 µM)	32 (≈ 59.9 µM)	Active	Active	64 (≈ 120 µM)		
